Data published in patent US10179780B2, “Azole benzene derivative and crystalline form thereof” (TEIJIN PHARMA LIMITED, priority 2014, dated 2019).

Key:
[1] = tested on: level of uric acid in the blood; test: Prolonged hypouricemic effect (normal rats), 24 hours after oral administration; format: in vivo, Sprague-Dawley male rats; conditions: 24 hours after administration
Protocol: The crystal form A of the compound (II) was administered to Sprague-Dawley male rats in the similar manner as Example 5.
After the blood was collected from the tail vein 24 hours after administration, the plasma was separated. The level of uric acid in the blood was measured by an uricase method using an absorption spectrometer and a uric acid determination kit (L type Wako UA F: Wako Pure Chemical Industries, Ltd.). The percentage of hypouricemic effect was determined by the following expression: Percentage of hypouricemic effect=(Level of uric acid of the control animal−Level of uric acid of the test compound-administered animal)×100/Level of uric acid of the control animal.

[2] = Solubility into JP2 solution (pH 6.8); format: physicochemical
Protocol: The solubility of the compound (II) in JP2 solution (pH 6.8) was confirmed. A solution was prepared by mildly pulverizing the crystals A of the compound (II) in a mortar, and adding approximately 4 mg of the pulverized crystals to […] of JP2 solution while stirring at room temperature. The absorbance (At) of each solution at 280 nm was successively measured immediately after the addition of the crystals using an ultraviolet-visible absorbance measurement method and the solubility at each measurement time was determined by the following expression using the absorbance (As) of a standard solution at 280 mu determined in advance as an index. The measurement was continued until 120 minutes. Solubility=At/As×Cs (where Cs represents the concentration of a standard solution) • Measurement apparatus: μDISS Profiler manufactured by Pion Inc. • Stirring rate: 700 rpm • UV measurement wavelength: 280 nm • Measurement interval: Start of measurement to 1 minute: 3 seconds • 1 to 8 minutes: 20 seconds • 8 to 120 minutes: 2 minutes

[3] = tested on: level of uric acid in the blood; test: Hypouricemic effect (normal rats), 2 hours after oral administration; conditions: 2 hours after administration
Protocol: A test compound suspended in a 0.5% methylcellulose solution was administered to 8 to 9 week-old Sprague-Dawley male rats (Japan Charles River Co.) by oral gavage administration using a feeding needle. After the blood was collected from the tail vein at 2 hours after administration, the plasma was separated. The level of uric acid in the blood sample was measured by uricase method using an absorption spectrometer as well as a uric acid determination kit (L type Wako UA F: Wako Pure Chemical Industries, Ltd.). The percentage of hypouricemic effect was determined by the following expression: Percentage of hypouricemic effect (%)=(Level of uric acid of the control animal−Level of uric acid of the test compound-administered animal)×100/Level of uric acid of the control animal.

[4] = tested on: level of uric acid in the plasma; test: Hypouricemic effect (oxonic acid-induced hyperuricemic beagle dogs); format: in vivo; conditions: hyperuricemic beagle dog, oral, 10 mg/kg, 8 hours after administration
Protocol: The hypouricemic effect was confirmed for the compounds (I) in oxonic acid-induced hyperuricmic beagle dog. […] Potassium oxonate (50 mg/kg) was subcutaneously administrated before and 4 hours after compound administration. After the blood was collected from the cephalic vein at 8 hours after administration, the plasma was separated. The level of uric acid in the plasma sample was measured by LC-MS/MS method and the percentage of hypouricemic effect was determined by the following expression: Percentage of hypouricemic effect (%)=(Level of uric acid of the control animal−Level of uric acid of the test compound-administered animal)×100/Level of uric acid of the control animal.

| SMILES | Percentage of hypouricemic effect ([1]; 3 mg/kg) [%] | Percentage of hypouricemic effect ([1]; 10 mg/kg) [%] | Precipitation / maintenance of dissolved state ([2]; JP2 solution pH 6.8, up to 120 minutes after the addition) | Time until total amount was dissolved ([2]; approximately 4 mg of pulverized crystals in JP2 solution pH 6.8, 700 rpm) [s] | solubility at 120 minutes ([2]; aqueous buffer, thermodynamic from solid, JP2 solution pH 6.8, room temperature, at 120 minutes after the addition) [µg/mL] | solubility at 30 seconds ([2]; aqueous buffer, thermodynamic from solid, JP2 solution pH 6.8, room temperature, total amount dissolved within 30 seconds after the addition) [µg/mL] | Percentage of hypouricemic effect ([3]; 1 mg/kg) [%] | Percentage of hypouricemic effect ([3]; 10 mg/kg) [%] | hypouricemic effect [4] |
| --- | --- | --- | --- | --- | --- | --- | --- | --- | --- |
| Cc1nc(-c2ccc(OCC(C)C)c(-n3cnnn3)c2)sc1C(=O)[O-].[Na+] [compound (II), sodium 4-methyl-2-[4-(2-methylpropoxy)-3-(1H-1,2,3,4-tetrazol-1-yl)phenyl]-1,3-thiazole-5-carboxylate] | ≥ 40 | ≥ 50 | no precipitation was observed | ≤ 30 | 184 | 187 | ≥ 50 | ≥ 50 | – |
| Cc1nc(-c2ccc(OCC(C)C)c(-n3cnnn3)c2)sc1C(=O)O [compound (I), 4-methyl-2-[4-(2-methylpropoxy)-3-(1H-1,2,3,4-tetrazol-1-yl)phenyl]-1,3-thiazole-5-carboxylic acid] | ≥ 40 | ≥ 50 | – | – | – | – | ≥ 50 | ≥ 50 | showed a hypouricemic effect |
